Results reported in patent US9714247B2, “Multiple kinase pathway inhibitors” (Mannkind Corporation, priority 2012, dated 2017).

Columns and labels:
[1] = tested on: PARP cleavage in DoHH-2 cells; test: PARP cleavage by Western blotting; format: cell-based, human; conditions: DoHH-2 cells, 2, 6 and 24 hr, low micromolar concentrations
Experimental: Additionally, using an exemplary amino naphthyridinones, Compound 1, […] PARP cleavage has been observed. PARP is downstream of the caspase cascade; its cleavage is an indicator or caspase-dependent apoptosis. PARP cleavage was assessed by Western blotting exponentially growing cultures of DoHH-2 cells that had been cultured overnight (18 h) in 1% FBS containing RPMI1640 media. These cells were washed, counted and plated with and without Compound 1 for 2, 6, and 24 hr. Cells were centrifuged and cell pellets were lysed using RIPA buffer from CST. Protein lysates were quantified using the BCA protein assay kit from Pierce and used in a standard Western blotting procedure. Anti-PARP antibody was obtained from CST and used as per the manufacturer's protocol. […] Thus amino naphthyridinones can be used to induce apoptosis in tumor cells.

[2] = tested on: PLCγ2 phosphorylation in Ramos cells; test: PLCγ2 phosphorylation by flow cytometry; format: cell-based, human
Outline: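 Ramos cells starved 18 h in 1% FBS, pretreated with inhibitor 2 h, then stimulated with anti-IgM (10 ug/ml final) plus 3.3 mM H2O2 for 2 min, then cross-linking F(ab) (10 ug/ml) plus H2O2 for 8 min. Fixed, permeabilized cells stained with PE anti-phospho-PLCγ2 (Tyr1217 or Tyr759), dead cells gated out; ED50 from geometric mean fluorescence over four inhibitor concentrations.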

[3] = tested on: phosphorylation of SFKs in Ramos cells; test: SFK phosphorylation (Tyr 416) by flow cytometry; format: cell-based, human
Outline: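 Ramos cells pretreated with compound 2 hrs in RPMI with 5% FBS, then stimulated 10 minutes with H2O2/anti-IgM. Phospho-Tyr 416 SFK detected by flow cytometry with an antibody that may cross-react across Src family members, plus fluorescent secondary antibody.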

PC3 = test: Apoptosis by flow cytometry (Annexin V / 7AAD); format: cell-based; conditions: Table 5, 6 hours
DoHH-2 tumor xenograft = format: in vivo
[4] = tested on: phosphorylation of SFKs in Ramos cells; test: SFK phosphorylation (Tyr 416) by Western blotting; format: cell-based, human; conditions: pretreated 2 hours
Experimental: Ramos cell lysates from stimulated and unstimulated cells were analyzed for the levels of phosphorylated SRC family members. As described in Example 82 (above), cells were pretreated for 2 hours with an amino naphthyridinones and then stimulated with anti-IgM antibody and H2O2, protein lysates were prepared, quantified and used for Western blotting. A commercially available antibody that detects Src phosphorylated at Tyr 416 (Cell Signalling) and may cross-react with other Src family members such as Lyn, Fyn, Lck, Yes and Hck when phosphorylated at equivalent sites was used for Western blot analysis. The molecular weights of SFK family members are quite similar (in the 55-60 kDa range) and different family members cannot be resolved by the conditions used for the Western blot. […] The procedure can be similarly adapted for flow cytometric analysis as with the PLC-γ2 assay in Example 82. Ramos cells were incubated with Compound 1 for 2 hrs in RPMI media with 5% FBS prior to stimulation stimulated with H2O2/anti-IgM/F(Ab) for 10 minutes. Cells were evaluated by FACS analysis using anti-pSRC antibody and FITC-conjugated goat anti-rabbit secondary antibody following overnight storage at 4° C. in BD perm/wash buffer.

[5] = tested on: PLCγ2 phosphorylation in Ramos cells; test: PLCγ2 phosphorylation by Western blotting; format: cell-based, human; conditions: anti-IgM/H2O2 stimulation, Tyr1217
Experimental: Ramos cells were cultured in RPMI 1640 media with 10% FBS and were starved overnight (18 h) in 1% FBS containing media and on the next day pretreated with inhibitor for 2 h before stimulation. Cells were stimulated to induce BTK network dependent signal transduction pathways using mouse anti-human IgM (final concentration 10 ug/ml; Invitrogen) antibodies and 3.3 mM H2O2 mixture for 2 minutes followed by F(Ab) fragment that cross-linked the anti-IgM antibody (final concentration 10 ug/ml), and 3.3 mM H2O2 for 8 minutes. Cell lysates were prepared in lysis buffer containing protease and phosphatase inhibitors, quantified using the BCA protein assay kit (Pierce) and used for Western blotting. Antibodies specifically targeted to the molecules of interest, PLCγ2 phosphorylated at Tyr1217 and total PLCγ2, (Cell Signaling Technology) were used in a standard Western blotting procedure.
Phosphorylation of PLCγ2 at Tyr1217 along with Tyr753, Tyr759 and Tyr1197 is correlated with increased PLCγ2 activity. The readout for BTK network signaling was inhibition of phosphorylation of PLCγ2 induced by the anti-IgM treatment.

DoHH2 cells = conditions: treated 24 hours
DoHH2 = test: Apoptosis by flow cytometry (Annexin V / 7AAD); format: cell-based, human; conditions: for Percent Apoptosis DOHH2: Table 5, 6 hours
Text: Activation of Tec family kinases including BTK, and/or Src kinase family members, regulates cell survival and cell death in normal B cells, lymphomas, and solid tumors. Apoptosis is a programmed cell death characterized by specific changes in cell morphology. […] Staurosporine was used as a positive control for apoptosis. […] Table 6 illustrates that several amino naphthyridinones induce significant apoptosis in DoHH2 cells.

CCN(CC)CCOc1ccc(Nc2cc3c(cn2)cc(-c2ccccc2)c(=O)n3CC)nc1 [Compound 1, 7-[5-(2-Diethylamino-ethoxy)-pyridin-2-ylamino]-1-ethyl-3-phenyl-1H-[1, 6]naphthyridin-2-one]
PARP cleavage [1]: induced the apoptotic pathway as shown by PARP cleavage
inhibition at 0.3 µM ([2]; Homo sapiens, 0.3 uM, flow cytometry, anti-phospho PLCγ2 (Tyr759), read-out: pPLCγ % inhibition): 63%
EC50 ([2]; Homo sapiens, flow cytometry, anti-phospho PLCγ2 (Tyr1217), four concentrations, read-out: Inhibition of phosphorylation of PLC-γ2 EC50): 0.38 µM
Inhibition of PLC-γ2 phosphorylation (flow cytometry) ([2]; increasing concentrations): dose dependent decrease in PLC-γ2 phosphorylation
inhibition at 0.3 µM ([3]; Homo sapiens, 0.3 uM, flow cytometry, SFK phosphorylated at Tyr 416, read-out: pSRC % inhibition): 31%
Inhibition of SFK phosphorylation (flow cytometry) ([3]; incubated 2 hrs): dose-dependent inhibition of SFK phosphorylation
Percent Apoptosis PC3 (PC3; 1 uM): 7.86%
Percent Apoptosis PC3 (PC3; 2 uM): 6.5%
Percent Apoptosis PC3 (PC3; 5 uM): 11.74%
Percent Apoptosis PC3 (PC3; 10 uM): 6.35%
Effect on tumor growth compared with 70 mg/kg PCI-32765 (DoHH-2 tumor xenograft; 62.5 mg/kg): more marked effect
Mortality (DoHH-2 tumor xenograft; 62.5 mg/kg group, day 17): 2 animals
Estimated maximal tolerated dose (DoHH-2 tumor xenograft; IP, SCID mice): ~62.5 mg/kg/day
Tumor growth inhibition (DoHH-2 tumor xenograft; highest dose 62.5 mg/kg/day IP, day 15, 19 and 21): significantly inhibited tumor growth
Inhibition of phosphorylation of SFKs (Western blot) [4]: dose-dependent decrease of phosphorylation of SFKs
Inhibition of PLCγ2 phosphorylation (Western blot) [5]: dose dependent decrease in PLCγ2 phosphorylation
Effect on Cell Cycle (DoHH2 cells): G1 Arrest
Percent Apoptosis DOHH2 (DoHH2; 1 uM): 4.43%
Percent Apoptosis DOHH2 (DoHH2; 2 uM): 29.84%
Percent Apoptosis DOHH2 (DoHH2; 5 uM): 21.76%
Percent Apoptosis DOHH2 (DoHH2; 10 uM): 37.52%
Percent Apoptosis at 2 uM (DoHH2; Table 6, DOHH2, 2 uM): 26.2%
Percent Apoptosis at 5 uM (DoHH2; Table 6, DOHH2, 5 uM): 32.58%
